# In patent publication US20240409573A1, “CALICHEAMICIN DERIVATIVES AND ANTIBODY DRUG CONJUGATES THEREOF” (priority 2017, published 2024):
# Tests used:
# Assay type in all cases: cell-based
# [1] = tested on: MDA-MB-361-DYT2 (breast cancer) cells, Her2-target expressing; assay: In vitro cell assay, cell viability by MTS, MDA-MB-361-DYT2; conditions: 96 h, read-out: Average IC50, MDA-MB-361-DYT2
# Method: (§1) Her2-Target expressing (BT474 (breast cancer), N87 (gastric cancer), MDA-MB-361-DYT2 (breast cancer)) or Her2-non-expressing (MDA-MB-468, HT29) cells, or 0033-target expressing HL60, HEL92.1.7, NB4, TF-1 or 0033-non-expressing (Raji) cells were seeded in 96-well cell culture plates for 24 hours before treatment. Cells were treated with 3-fold serially diluted antibody-drug conjugates or free compounds (i.e., no antibody conjugated to the drug) in duplicate at 10 concentrations. Cell viability was determined by CellTiter 96® AQueous One Solution Cell Proliferation MTS Assay (Promega, Madison WI) 96 hours after treatment. Relative cell viability was determined as percentage of untreated control. IC50 values were calculated using a four parameter logistic model #203 with XLfit v4.2 (IDBS, Guildford, Surry, UK). Results are shown below in Table 3 (for payloads), Table 4 (for Herceptin conjugates), and Table 5 (for CD33 conjugates).
# [2] = tested on: NB4 cells, CD33-target expressing; assay: In vitro cell assay, cell viability by MTS, NB4; conditions: Homo sapiens, NB-4, 96 h, read-out: Average IC50, NB4
# Method: as §1
# [3] = tested on: TF-1 cells, CD33-target expressing; assay: In vitro cell assay, cell viability by MTS, TF-1; conditions: Homo sapiens, TF-1, 96 h, read-out: Average IC50, TF-1
# Method: as §1
# [4] = tested on: HL60 cells, CD33-target expressing; assay: In vitro cell assay, cell viability by MTS, HL60; conditions: Homo sapiens, HL-60, 96 h, read-out: Average IC50, HL-60
# Method: as §1
# [5] = tested on: HEL92.1.7 cells, CD33-target expressing; assay: In vitro cell assay, cell viability by MTS, HEL92.1.7; conditions: Homo sapiens, HEL 92.1.7, 96 h, read-out: Average IC50, HEL92.1.7
# Method: as §1
# [6] = tested on: HT29 cells, Her2-non-expressing; assay: In vitro cell assay, cell viability by MTS, HT29; conditions: Homo sapiens, HT-29, 96 h, read-out: Average IC50, HT29
# Method: as §1
# [7] = tested on: N87 (gastric cancer) cells, Her2-target expressing; assay: In vitro cell assay, cell viability by MTS, N87; conditions: 96 h, read-out: Average IC50, N87
# Method: as §1
# [8] = tested on: Raji cells, CD33-non-expressing; assay: In vitro cell assay, cell viability by MTS, Raji; conditions: Homo sapiens, 96 h, read-out: Average IC50, Raji
# Method: as §1
Compound,IC50 [1],IC50 [2],IC50 [3],IC50 [4],IC50 [5],IC50 [6],IC50 [7],IC50 [8]
CCN[C@H]1CO[C@@H](O[C@H]2[C@H](O[C@H]3C#C/C=C\C#C[C@]4(O)CC(=O)C(NC(=O)OC)=C3/C4=C\CSSc3ccc(C(=O)O)cc3)O[C@H](C)[C@@H](NO[C@H]3C[C@H](O)[C@H](SC(=O)c4c(C)c(I)c(O[C@@H]5O[C@@H](C)[C@H](O)[C@@H](OC)[C@H]5O)c(OC)c4OC)[C@@H](C)O3)[C@@H]2O)C[C@@H]1OC [Example P13],982 pM,23 pM,331 pM,44 pM,39 pM,792 pM,536 pM,22 pM
CCN[C@H]1CO[C@@H](O[C@H]2[C@H](O[C@H]3C#C/C=C\C#C[C@]4(O)CC(=O)C(NC(=O)OC)=C3/C4=C\CSSC(CC(=O)O)C(=O)O)O[C@H](C)[C@@H](NO[C@H]3C[C@H](O)[C@H](SC(=O)c4c(C)c(I)c(O[C@@H]5O[C@@H](C)[C@H](O)[C@@H](OC)[C@H]5O)c(OC)c4OC)[C@@H](C)O3)[C@@H]2O)C[C@@H]1OC (stereo partly drawn) [Example P6],1350 pM,492 pM,5930 pM,568 pM,–,1140 pM,1240 pM,1210 pM
CCN[C@H]1CO[C@@H](O[C@H]2[C@H](O[C@H]3C#C/C=C\C#C[C@]4(O)CC(=O)C(NC(=O)OC)=C3/C4=C\CSSC(C)(C)CCN)O[C@H](C)[C@@H](NO[C@H]3C[C@H](O)[C@H](SC(=O)c4c(C)c(I)c(O[C@@H]5O[C@@H](C)[C@H](O)[C@@H](OC)[C@H]5O)c(OC)c4OC)[C@@H](C)O3)[C@@H]2O)C[C@@H]1OC [Example P8],63 pM,–,360 pM,81 pM,–,70 pM,804 pM,28 pM
CCNC1COC(OC2C(OC3C#C/C=C\C#C[C@]4(O)CC(=O)C(NC(=O)OC)=C3/C4=C\CSSC3CC3)OC(C)C(NOC3CC(O)C(SC(=O)c4c(C)c(I)c(OC5OC(C)C(O)C(OC)C5O)c(OC)c4OC)C(C)O3)C2O)CC1OC (stereo in doubt) [Example P18],17 pM,–,93 pM,5 pM,–,5 pM,33 pM,3 pM
CCN[C@H]1CO[C@@H](O[C@H]2[C@H](O[C@H]3C#C/C=C\C#C[C@]4(O)CC(=O)C(NC(=O)OC)=C3/C4=C\CSSC(C)(C)CC(=O)N(C)C)O[C@H](C)[C@@H](NO[C@H]3C[C@H](O)[C@H](SC(=O)c4c(C)c(I)c(O[C@@H]5O[C@@H](C)[C@H](O)[C@@H](OC)[C@H]5O)c(OC)c4OC)[C@@H](C)O3)[C@@H]2O)C[C@@H]1OC [Example P31],32 pM,–,84 pM,11 pM,–,10 pM,51 pM,8 pM
CCN[C@H]1CO[C@@H](O[C@@H]2C(O)[C@H](NO[C@H]3C[C@H](O)[C@H](SC(=O)c4c(C)c(I)c(O[C@@H]5O[C@@H](C)[C@H](O)[C@@H](OC)[C@H]5O)c(OC)c4OC)[C@@H](C)O3)[C@@H](C)O[C@H]2O[C@H]2C#C/C=C\C#C[C@]3(O)CC(=O)C(NC(=O)OC)=C2/C3=C\CSSc2ccncc2)C[C@@H]1OC (stereo in doubt) [Example P44],> 10000 pM,–,1480 pM,127 pM,–,1260 pM,418 pM,171 pM
CCN[C@H]1CO[C@@H](O[C@H]2[C@H](O[C@H]3C#C/C=C\C#C[C@]4(O)CC(=O)C(NC(=O)OC)=C3/C4=C\CSSC(C)(C)CC(N)=O)O[C@H](C)[C@@H](NO[C@H]3C[C@H](O)[C@H](SC(=O)c4c(C)c(I)c(O[C@@H]5O[C@@H](C)[C@H](O)[C@@H](OC)[C@H]5O)c(OC)c4OC)[C@@H](C)O3)[C@@H]2O)C[C@@H]1OC [Example P30],49 pM,–,112 pM,49 pM,–,57 pM,308 pM,30 pM
